Experimental data taken from patent US20040086504A1, “Cyr61 as a target for treatment and diagnosis of breast cancer” (priority 2003, published 2004).
Starred links: 1 amine or outer side, 2 acyl side, 3 side chain; linkers in the order of their positions; H or OH if unused. Positions of bridges follow the written chain, without caps; N, C: chain ends. Non-standard residues stand in square brackets, D forms with d. Residues, ends and D or L forms follow the SMILES beside them. Chains are numbered I, II in the order given. Actinocin(9to1) = Cc1c2oc3c(C)ccc(C(=O)[*:1])c3nc-2c(C(=O)[*:2])c(N)c1=O; NMeV = CN[C@H](C(=O)O)C(C)C; Sar = CNCC(=O)O

Key:
Cyr61 [1] = assay: Cyr61 mRNA/protein expression in MDA-MB-453 cells (Northern/Western blot); format: cell-based, human; settings: for effect on DHT induction of Cyr61: co-treatment with 1 nM DHT
Cyr61 [2] = assay: Cyr61 mRNA/protein expression in MCF-7 cells (Northern/Western blot); settings: for block of 17β-estradiol upregulation of Cyr61: co-treatment with 17β-estradiol
Cyr61 [3] = assay: Cyr61 mRNA expression in ZR-75-1 cells (Northern blot); format: cell-based, human
Description: (§1) Incubation and analysis were performed according to techniques described in Example 1.
(§2) Total cellular RNA was isolated from cultured adenocarcinoma cells by guanidium isothiocynate lysis followed by phenol/chloroform extraction.

Cyr61 [4] = assay: Cyr61 mRNA expression in MDA-MB-231 cells (Northern blot); format: cell-based, human; settings: AR- MDA-MB-231 cells
Description: as §1, §2

Cyr61 [5] = assay: Cyr61 mRNA/protein expression in T47D cells (Northern/Western blot)

In the case of CC(C)(O)C(=O)Nc1ccc([N+](=O)[O-])c(C(F)(F)F)c1 [2-OH flutamide], the “effect on DHT induction of Cyr61” value (Cyr61 [1]) is reported as “completely abrogated”.
For C[C@]12CC[C@@H]3c4ccc(O)cc4CC[C@H]3[C@@H]1CC[C@@H]2O [17β-estradiol], the “upregulation of Cyr61 mRNA” value (Cyr61 [2]) was “upregulation” and the “effects of EGF on mRNA transcription” value (Cyr61 [2]; with EGF) was “stimulates”.
For C[C@]12CCC(=O)C[C@@H]1CC[C@@H]1[C@@H]2CC[C@]2(C)[C@@H](O)CC[C@@H]12 [DHT], the “maximum expression of Cyr61 mRNA and protein” value (Cyr61 [1]) was 8 fold, the “time of maximum expression of Cyr61 mRNA and protein” value (Cyr61 [1]) was no more than 0.5 h and the “concentration of maximal expression of Cyr61 mRNA and protein” value (Cyr61 [1]; dose-dependent) was 1.0 nM. For the same molecule, the EC50 (Cyr61 [1]; read-out: EC50 for upregulation of Cyr61 mRNA and protein) was roughly 0.3 nM, the “induction of Cyr61” value (Cyr61 [3]) was “lack of induction” and the “expression of Cyr61” value (Cyr61 [4]) was “not enhanced”.
For CCC(=O)[C@@]1(C)CC[C@H]2[C@@H]3CCC4=CC(=O)CCC4=C3CC[C@@]21C [R5020], the “induction of Cyr61 mRNA transcription” value (Cyr61 [5]) was “dose-dependent manner” and the “effects of EGF on mRNA transcription” value (Cyr61 [5]; with EGF) was “stimulates”.
In the case of Cc1c2oc3c(C)ccc(C(=O)N[C@@H]4C(=O)N[C@H](C(C)C)C(=O)N5CCC[C@H]5C(=O)N(C)CC(=O)N(C)[C@@H](C(C)C)C(=O)O[C@@H]4C)c3nc-2c(C(=O)N[C@@H]2C(=O)N[C@H](C(C)C)C(=O)N3CCC[C@H]3C(=O)N(C)CC(=O)N(C)[C@@H](C(C)C)C(=O)O[C@@H]2C)c(N)c1=O [actinomycin D] (I: T[dV]P[Sar][NMeV] / II: T[dV]P[Sar][NMeV]; ester I:1-I:C, II:1-II:C; linker I:N-II:N via Actinocin(9to1)), the “effect on DHT induction of Cyr61” value (Cyr61 [1]) is reported as “completely blocked”, the “block of 17β-estradiol upregulation of Cyr61” value (Cyr61 [2]) is reported as “fully blocked” and the “block of R5020 upregulation of Cyr61” value (Cyr61 [5]; co-treatment with R5020) is reported as “fully blocked”.
For C[C@@H]1C[C@@H]([C@H](O)CC2CC(=O)NC(=O)C2)C(=O)[C@@H](C)C1 [cycloheximide], the “Cyr61 mRNA on co-treatment with DHT compared to DHT treatment alone” value (Cyr61 [1]) was “significant overexpression”, the “effect on DHT induction of Cyr61” value (Cyr61 [1]) was “not observed” and the “block of 17β-estradiol upregulation of Cyr61” value (Cyr61 [2]) was “not”.
“EGF: epidermal growth factor (NSDSECPLSHDGYCLHDGVCMYIEALDKYACNCVVGYIGERCQYRDLKWWELR; UniProt P01133 971-1023, looked up)” was tested, and the “time to maximal levels of Cyr61 mRNA” value (Cyr61 [3]) was no more than 0.5 h and the “expression of Cyr61” value (Cyr61 [4]) was “rapidly induced”.
